Reference: US20230381157A1, “RIFABUTIN FOR THE TREATMENT OF ACINETOBACTER BAUMANNII” (University of Southern California, priority 2018, published 2023)
Converted amounts (≈) assume the structure as drawn. Like-named read-outs stand apart in the source and are kept apart here.

How the values were obtained:
[1] = system: A. baumannii AB5075 transposon disruption mutants; assay: microbe, parasite or virus in culture; assay type: cell-based, Acinetobacter baumannii; details: for MIC: Acinetobacter baumannii
A. baumannii LAC-4 = assay type: in vivo, mouse; details: C3H mice, 10 mg/kg/daily or 1 mg/kg for 3 days, listed as RBT
HEK293T = assay: Specificity: mammalian cell cytotoxicity / inhibition of bacteria growth (CC50/IC50)

CO[C@H]1/C=C/O[C@@]2(C)Oc3c(C)c(O)c4c(c3C2=O)C2=NC3(CCN(CC(C)C)CC3)NC2=C(NC(=O)/C(C)=C\C=C\[C@H](C)[C@H](O)[C@@H](C)[C@@H](O)[C@@H](C)[C@H](OC(C)=O)[C@@H]1C)C4=O [rifabutin]
Rifabutin MIC ([1]; AB06383, disrupted gene hisJ, RPMI, listed as RBT): 0.05 µg/mL | Rifabutin MIC ([1]; AB06386, disrupted gene hisP, RPMI, listed as RBT): 0.05 µg/mL | Rifabutin MIC ([1]; AB06392, disrupted gene hisP, RPMI, listed as RBT): 0.05 µg/mL | Rifabutin MIC ([1]; AB06694, ABUW_2539 (IS4 family transposase), MHII): 3.13 µg/mL | Rifabutin MIC ([1]; AB06694, ABUW_2539 (IS4 family transposase), RPMI): 0.05 µg/mL | Rifabutin MIC ([1]; AB06695, ABUW_2539, MHII): 3.13 µg/mL | Rifabutin MIC ([1]; AB06695, ABUW_2539, RPMI): 0.05 µg/mL | Rifabutin MIC ([1]; AB06731, ABUW_2557 (hypothetical protein(epoxyqueuosine reductase QueH)), MHII): 3.13 µg/mL | Rifabutin MIC ([1]; AB06731, ABUW_2557 (hypothetical protein(epoxyqueuosine reductase QueH)), RPMI): 0.05 µg/mL | Rifabutin MIC ([1]; AB06732, ABUW_2557, MHII): 6.25 µg/mL | Rifabutin MIC ([1]; AB06732, ABUW_2557, RPMI): 0.05 µg/mL | Rifabutin MIC ([1]; AB06821, ABUW_2586 (allophanate hydrolase), MHII): 3.13 µg/mL | Rifabutin MIC ([1]; AB06821, ABUW_2586 (allophanate hydrolase), RPMI): 0.05 µg/mL | Rifabutin MIC ([1]; AB06822, ABUW_2586, MHII): 3.13 µg/mL | Rifabutin MIC ([1]; AB06822, ABUW_2586, RPMI): 0.05 µg/mL | Rifabutin MIC ([1]; AB07354, disrupted gene aroP, RPMI, listed as RBT): 0.05 µg/mL | Rifabutin MIC ([1]; AB07356, disrupted gene aroP, RPMI, listed as RBT): 0.05 µg/mL | Rifabutin MIC ([1]; AB07566, ABUW_2893 (hypothetical protein), MHII): 0.78 µg/mL | Rifabutin MIC ([1]; AB07566, ABUW_2893 (hypothetical protein), RPMI): 0.05 µg/mL | Rifabutin MIC ([1]; AB07567, ABUW_2893, MHII): 0.78 µg/mL | Rifabutin MIC ([1]; AB07567, ABUW_2893, RPMI): 0.05 µg/mL | Rifabutin MIC ([1]; AB07813, disrupted gene mtr, RPMI, listed as RBT): 0.05 µg/mL | Rifabutin MIC ([1]; AB09112, ABUW_3470 (Zn-dependent hydrolase), MHII): 0.78 µg/mL | Rifabutin MIC ([1]; AB09112, ABUW_3470 (Zn-dependent hydrolase), RPMI): 0.05 µg/mL | Rifabutin MIC ([1]; AB09114, ABUW_3470, MHII): 0.78 µg/mL | Rifabutin MIC ([1]; AB09114, ABUW_3470, RPMI): 0.05 µg/mL | Rifabutin MIC ([1]; AB09979, disrupted gene aroP, RPMI, listed as RBT): 0.05 µg/mL | Rifabutin MIC ([1]; AB09980, disrupted gene tryP, RPMI, listed as RBT): 0.05 µg/mL | Rifabutin MIC ([1]; AB09982, disrupted gene tryP, RPMI, listed as RBT): 0.05 µg/mL | Rifabutin MIC ([1]; AB10057, ABUW_3811 (DID), MHII): 3.13 µg/mL | Rifabutin MIC ([1]; AB10057, ABUW_3811 (DID), RPMI): 0.05 µg/mL | Rifabutin MIC ([1]; AB10058, ABUW_3811, MHII): 3.13 µg/mL | Rifabutin MIC ([1]; AB10058, ABUW_3811, RPMI): 0.05 µg/mL | MIC ([1]; read-out: Rifabutin MIC, AB00188, disrupted gene aroP, MHII): 3.13 µg/mL (≈ 3.7 µM) | MIC ([1]; read-out: Rifabutin MIC, AB00188, disrupted gene aroP, RPMI): < 0.05 µg/mL | MIC ([1]; read-out: Rifabutin MIC, AB00190, disrupted gene aroP, MHII): 6.25 µg/mL (≈ 7.38 µM) | MIC ([1]; read-out: Rifabutin MIC, AB00190, disrupted gene aroP, RPMI): < 0.05 µg/mL | MIC ([1]; read-out: Rifabutin MIC, AB00215, disrupted gene tryP, MHII): 6.25 µg/mL (≈ 7.38 µM) | MIC ([1]; read-out: Rifabutin MIC, AB00215, disrupted gene tryP, RPMI): < 0.05 µg/mL | MIC ([1]; read-out: Rifabutin MIC, AB00216, disrupted gene tryP, MHII): 1.56 µg/mL (≈ 1.84 µM) | MIC ([1]; read-out: Rifabutin MIC, AB00216, disrupted gene tryP, RPMI): < 0.05 µg/mL | MIC ([1]; read-out: Rifabutin MIC, AB02204, disrupted gene aroP, MHII): 6.25 µg/mL (≈ 7.38 µM) | MIC ([1]; read-out: Rifabutin MIC, AB02204, disrupted gene aroP, RPMI): < 0.05 µg/mL | MIC ([1]; read-out: Rifabutin MIC, AB02205, disrupted gene aroP, MHII): 3.13 µg/mL (≈ 3.7 µM) | MIC ([1]; read-out: Rifabutin MIC, AB02205, disrupted gene aroP, RPMI): < 0.05 µg/mL | MIC ([1]; read-out: Rifabutin MIC, AB03015, disrupted gene aroP, MHII): 6.25 µg/mL (≈ 7.38 µM) | MIC ([1]; read-out: Rifabutin MIC, AB03015, disrupted gene aroP, RPMI): < 0.05 µg/mL | MIC ([1]; read-out: Rifabutin MIC, AB03608, disrupted gene hisJ, MHII): 3.13 µg/mL (≈ 3.7 µM) | MIC ([1]; read-out: Rifabutin MIC, AB03608, disrupted gene hisJ, RPMI): < 0.05 µg/mL | MIC ([1]; read-out: Rifabutin MIC, AB03612, disrupted gene hisM, MHII): 3.13 µg/mL (≈ 3.7 µM) | MIC ([1]; read-out: Rifabutin MIC, AB03612, disrupted gene hisM, RPMI): < 0.05 µg/mL | MIC ([1]; read-out: Rifabutin MIC, AB03616, disrupted gene hisM, MHII): 6.25 µg/mL (≈ 7.38 µM) | MIC ([1]; read-out: Rifabutin MIC, AB03616, disrupted gene hisM, RPMI): < 0.05 µg/mL | MIC ([1]; read-out: Rifabutin MIC, AB03618, disrupted gene hisM, MHII): 6.25 µg/mL (≈ 7.38 µM) | MIC ([1]; read-out: Rifabutin MIC, AB03618, disrupted gene hisM, RPMI): < 0.05 µg/mL | MIC ([1]; read-out: Rifabutin MIC, AB5075-UW (parent strain), MHII): 6.25 µg/mL (≈ 7.38 µM) | MIC ([1]; read-out: Rifabutin MIC, AB5075-UW (parent strain), RPMI): < 0.05 µg/mL | MIC ([1]; read-out: Rifabutin MIC, AB06105, disrupted gene aroP, MHII): 3.13 µg/mL (≈ 3.7 µM) | MIC ([1]; read-out: Rifabutin MIC, AB06105, disrupted gene aroP, RPMI): < 0.05 µg/mL | MIC ([1]; read-out: Rifabutin MIC, AB06383, disrupted gene hisJ, MHII): 6.25 µg/mL (≈ 7.38 µM) | MIC ([1]; read-out: Rifabutin MIC, AB06383, disrupted gene hisJ, RPMI): < 0.05 µg/mL | MIC ([1]; read-out: Rifabutin MIC, AB06386, disrupted gene hisP, MHII): 0.78 µg/mL (≈ 0.921 µM) | MIC ([1]; read-out: Rifabutin MIC, AB06386, disrupted gene hisP, RPMI): < 0.05 µg/mL | MIC ([1]; read-out: Rifabutin MIC, AB06392, disrupted gene hisP, MHII): 0.78 µg/mL (≈ 0.921 µM) | MIC ([1]; read-out: Rifabutin MIC, AB06392, disrupted gene hisP, RPMI): < 0.05 µg/mL | MIC ([1]; read-out: Rifabutin MIC, AB07354, disrupted gene aroP, MHII): 6.25 µg/mL (≈ 7.38 µM) | MIC ([1]; read-out: Rifabutin MIC, AB07354, disrupted gene aroP, RPMI): < 0.05 µg/mL | MIC ([1]; read-out: Rifabutin MIC, AB07356, disrupted gene aroP, MHII): 1.56 µg/mL (≈ 1.84 µM) | MIC ([1]; read-out: Rifabutin MIC, AB07356, disrupted gene aroP, RPMI): < 0.05 µg/mL | MIC ([1]; read-out: Rifabutin MIC, AB07813, disrupted gene mtr, MHII): 25 µg/mL (≈ 29.5 µM) | MIC ([1]; read-out: Rifabutin MIC, AB07813, disrupted gene mtr, RPMI): < 0.05 µg/mL | MIC ([1]; read-out: Rifabutin MIC, AB09979, disrupted gene aroP, MHII): 0.78 µg/mL (≈ 0.921 µM) | MIC ([1]; read-out: Rifabutin MIC, AB09979, disrupted gene aroP, RPMI): < 0.05 µg/mL | MIC ([1]; read-out: Rifabutin MIC, AB09980, disrupted gene tryP, MHII): 3.13 µg/mL (≈ 3.7 µM) | MIC ([1]; read-out: Rifabutin MIC, AB09980, disrupted gene tryP, RPMI): < 0.05 µg/mL | MIC ([1]; read-out: Rifabutin MIC, AB09982, disrupted gene tryP, MHII): 6.25 µg/mL (≈ 7.38 µM) | MIC ([1]; read-out: Rifabutin MIC, AB09982, disrupted gene tryP, RPMI): < 0.05 µg/mL | efficacy RBT vs RIF (A. baumannii LAC-4): no difference in efficacy | Specificity HEK293T (CC50/IC50) (HEK293T; IC50 vs A. baumannii ATCC 17978, RPMI + 50% serum): 506006.298 | Specificity HEK293T (CC50/IC50) (HEK293T; IC50 vs A. baumannii ATCC 17978, RPMI alone): 1961.478 | Specificity HEK293T (CC50/IC50) (HEK293T; IC50 vs A. baumannii HUMC1, RPMI + 50% serum): 97331.320 | Specificity HEK293T (CC50/IC50) (HEK293T; IC50 vs A. baumannii HUMC1, RPMI alone): 33559.242 | Specificity HEK293T (CC50/IC50) (HEK293T; top screen hits, IC50 against A. baumannii HUMC1 in 50% serum): 148.31
